The source of these data is patent publication US5753240A, “Fluorinated compounds and compositions comprising them” (L'Oreal, priority 1994, dated 1998).

Type in all cases: physicochemical
A short description of data set [1]: Thickening effect of Example 1 on various vehicles: Sunflower oil. As to conditions: 0.2% in Sunflower oil. The procedure:
(§1) The thickening of the medium can be carried out by completely dissolving the fluorinated compound of formula I, at a temperature ranging from 20° C. to 80° C., and then by allowing the mixture to stand until it is completely thickened.
(§2) Thickening effect of Example 1 on various vehicles
(§3) As is evident, Sunflower refers to Sunflower oil and Parleam refers to Parleam oil. Eutanol G is a tradename for octyldodecanol and is manufactured by Henkel.
(§4) Gelled media were thus obtained.

Data set [2] can be described thus: Thickening effect of Example 1 on various vehicles: Parleam oil. As to conditions: 0.2% in Parleam oil. The protocol: as §1, §2, §3, §4
The nature of data set [3]: Stability of the thickened (gelled) media over time. As to conditions: over a period of over 6 months.
From the text: as §4

Data set [4] is described as follows: Thickening effect of Example 1 on various vehicles: Perhydrosqualene. As to conditions: 0.2% in Perhydrosqualene. The procedure: as §1, §2, §4
Data set [5] is described as follows: Thickening effect of Example 1 on various vehicles: Petroleum jelly. As to conditions: 0.2% in Petroleum jelly. The procedure:
as §1, §2, §4

A short description of data set [6]: Thickening effect of Example 1 on various vehicles: Olive oil. The settings on record: 0.2% in Olive oil. The protocol: as §1, §2, §4

As to `CCCCCCCCCCCCCCCCOC(=O)NCCCCCCCCCCC(=O)OCCC(F)(F)C(F)(F)C(F)(F)C(F)(F)C(F)(F)C(F)(F)C(F)(F)C(F)(F)F` [Example 1, 2-(F-octyl)ethyl 11-(N-hexadecyloxycarbonyl)aminoundecanoate], the Thickening effect result in data set [1], in data set [2], in data set [4], in data set [5] and in data set [6] was “no effect” in each case. In data set [3], the “Stability of thickened media” value is “perfect stability”.
